Counter-ions that a name gives are not always drawn. Like-named read-outs stand apart in the source and are kept apart here.
Assays:
HT29 = experiment: CellTiterGlo cell viability assay, HT29; assay type: cell-based; settings: HT29, 72 h; for EC50: read-out: Ab EC50; for inhibition at 198 µM: read-out: Top Inhibit
Experimental: (§1) A subset of compounds of the invention were assayed for their cytotoxic activity in an array of different solid tumours and haematological malignancies using the following assay.
(§2) In vitro viability assay were performed to assess the effects of compounds on cell viability in selected cell lines over 72 h using the CellTiterGlo (CTG, Promega-G7573) assay. The tests were performed in duplicates with treatment of compounds at 9 points, 3.16 folds titration in 96 well plates over ˜72 h. The compound starting concentrations were 198 μM. Cell viability assay using CellTiterGlo in 96-well plate were performed. Compound treatment 72 h, standard growth conditions, duplicates. Compounds were dissolved to 40 mM with thawed […]. Compounds were serially diluted at 3.16 fold in thawed DMSO, and warmed to 37° C. before being dissolved in media (2 μL+200 μL). After compounds were dissolved in media, media containing compounds were warmed to 37° C. in incubator and then compounds in media were added to cell plates (50 μL+50 μL) in duplicates. The compounds' final concentrations were from 198 μM to 19.8 nM. All compound solubilities were checked and recorded again, then the plates were transferred to CO2 tissue culture incubator immediately and incubated for 3 days. DMSO final concentration is 0.5%. The parent nucleoside in each case was tested as a comparator, as was an exemplary ProTide. The drugs of the ProTide class that were tested were as follows:
(§3) The following cell lines were tested and are referred to in the Table 1 below:
(§4) In Tables 2, 3 and 4, ‘Ab EC50’ refers to the absolute EC50 and ‘Top inhibit’ refers to the percentage inhibition achieved at the highest concentration tested.

HepG2 = experiment: CellTiterGlo cell viability assay, HepG2; assay type: cell-based; settings: HepG2, 72 h; for EC50: read-out: Ab EC50; for inhibition at 198 µM: read-out: Top Inhibit
Experimental: as §1, §2, §3, §4

OVCAR 3 = experiment: CellTiterGlo cell viability assay, OVCAR 3; assay type: cell-based; settings: for inhibition at 198 µM: OVCAR-3, 72 h, read-out: Top Inhibit; for EC50: read-out: Ab EC50
Experimental: as §1, §2, §3, §4

MCF-7 = experiment: CellTiterGlo cell viability assay, MCF-7; assay type: cell-based; settings: MCF-7, 72 h; for inhibition at 198 µM / EC50: Homo sapiens, MCF7, 72 h; for inhibition at 198 µM: read-out: Top Inhibit; for EC50: Table 4 classes, read-out: Ab EC50
Experimental: as §1, §2, §3, §4

CCRF-CEM = experiment: CellTiterGlo cell viability assay, CCRF-CEM; assay type: cell-based; settings: 72 h; for EC50: read-out: Ab EC50; for inhibition at 198 µM: read-out: Top Inh
Experimental: as §1, §2, §3, §4

MOLT-4 = experiment: CellTiterGlo cell viability assay, MOLT-4; assay type: cell-based; settings: MOLT-4, 72 h; for inhibition at 198 µM: read-out: Top Inh; for EC50: read-out: Ab EC50
Experimental: as §1, §2, §3, §4

K562 = experiment: CellTiterGlo cell viability assay, K562; assay type: cell-based; settings: for inhibition at 198 µM: read-out: Top Inh; for EC50: read-out: Ab EC50
Experimental: as §1, §2, §3, §4

HL-60 = experiment: CellTiterGlo cell viability assay, HL-60; assay type: cell-based; settings: HL-60, 72 h; for EC50: read-out: Ab EC50; for inhibition at 198 µM: read-out: Top Inh
Experimental: as §1, §2, §3, §4

RL = experiment: CellTiterGlo cell viability assay, RL; assay type: cell-based; settings: 72 h; for inhibition at 198 µM: read-out: Top Inh
Experimental: as §1, §2, §3, §4

RPMI-8226 = experiment: CellTiterGlo cell viability assay, RPMI-8226; assay type: cell-based, Human; settings: RPMI-8226, 72 h; for EC50: read-out: Ab EC50; for inhibition at 198 µM: read-out: Top Inh
Experimental: as §1, §2, §3, §4

KG-1 = experiment: CellTiterGlo cell viability assay, KG-1; assay type: cell-based; settings: KG-1, 72 h; for EC50: read-out: Ab EC50; for inhibition at 198 µM: read-out: Top Inhibit
Experimental: as §1, §2, §3, §4

[1] = Homo sapiens, HT-29, 72 h, Table 4 classes
[2] = Homo sapiens, HT-29, 72 h, percentage inhibition at the highest concentration tested
[3] = Homo sapiens, percentage inhibition at the highest concentration tested
[4] = Homo sapiens, OVCAR 3, 72 h, Table 4 classes
[5] = percentage inhibition at the highest concentration tested
[6] = Homo sapiens, K562, 72 h, percentage inhibition at the highest concentration tested
[7] = Homo sapiens, K562, K 562, 72 h, Table 4 classes

Row | Structure (SMILES) | EC50 (HT29; [1]) [nM] | inhibition at 198 µM (HT29; [2]) [%] | EC50 (HepG2; Homo sapiens, Table 4 classes) [nM] | inhibition at 198 µM (HepG2; [3]) [%] | inhibition at 198 µM (OVCAR 3; [3]) [%] | EC50 (OVCAR 3; [4]) [nM] | inhibition at 198 µM (MCF-7; [5]) [%] | EC50 (CCRF-CEM; Homo sapiens, Table 4 classes) [nM] | inhibition at 198 µM (CCRF-CEM; [3]) [%] | inhibition at 198 µM (MOLT-4; [3]) [%] | EC50 (MOLT-4; Homo sapiens, Table 4 classes) [nM] | inhibition at 198 µM (K562; [6]) [%] | EC50 (K562; [7]) [nM] | EC50 (HL-60; Homo sapiens, Table 4 classes) [nM] | inhibition at 198 µM (HL-60; [3]) [%] | inhibition at 198 µM (RL; [3]) [%] | EC50 (RPMI-8226; Homo sapiens, Table 4 classes) [nM] | inhibition at 198 µM (RPMI-8226; [3]) [%] | EC50 (KG-1; Homo sapiens, Table 4 classes) [nM] | inhibition at 198 µM (KG-1; [3]) [%] | other results
1 | C[C@H](NP(=O)(Oc1ccccc1)OP(=O)(O)OC[C@H]1O[C@@H](n2cnc3c(N)nc(Cl)nc32)[C@H](F)C1O)C(=O)OCC(C)(C)C (stereo partly drawn) [Example 9, 2-Chloro-9-(2′-Deoxy-2′-fluoro-β-D-arabinofuranosyl)adenine-5′-O-[phenyl(neopentoxy-L-alaninyl)] Diphosphate Triethylammonium Salt] | 200 to 1000 | 70 | 200 to 1000 | 53 | 43 | > 10000 | 45 | < 200 | 99 | 92 | < 200 | 40 | > 10000 | < 200 | 96 | 53 | > 10000 | 81 | < 200 | 92 | EC50 (RL; Homo sapiens, Table 4 classes, read-out: Ab EC50): 200 to 1000 nM
2 | CC(C)(NP(=O)(Oc1ccccc1)OP(=O)(O)OC[C@H]1O[C@@H](n2cnc3c(N)nc(Cl)nc32)[C@H](F)C1O)C(=O)OCc1ccccc1 (stereo partly drawn) [Example 10, 2-Chloro-9-(2′-Deoxy-2′-fluoro-β-D-arabinofuranosyl)adenine-5′-O-[phenyl(benzoxy-dimethylglycinyl)] Diphosphate Triethylammonium Salt] | 200 to 1000 | 70 | 1000 to 5000 | 55 | 42 | > 10000 | 51 | < 200 | 99 | 93 | < 200 | 37 | > 10000 | < 200 | 96 | 48 | > 10000 | 80 | < 200 | 92 | EC50 (MCF-7): > 10000 nM
3 | CC(C)(NP(=O)(Oc1cccc2ccccc12)OP(=O)(O)OC[C@H]1O[C@@H](n2cnc3c(N)nc(Cl)nc32)[C@H](F)C1O)C(=O)OCc1ccccc1 (stereo partly drawn) [Example 11, 2-Chloro-9-(2′-Deoxy-2′-fluoro-β-D-arabinofuranosyl)adenine-5′-O-[1-naphthyl(benzoxy-dimethylglycinyl)] Diphosphate Triethylammonium Salt] | 200 to 1000 | 69 | 1000 to 5000 | 58 | 70 | > 10000 | 57 | < 200 | 99 | 91 | < 200 | 50 | > 10000 | < 200 | 96 | 47 | > 10000 | 81 | < 200 | 92 | EC50 (MCF-7): > 10000 nM
4 | CC(C)[C@H](NP(=O)(Oc1ccccc1)OP(=O)(O)OC[C@H]1O[C@@H](n2cnc3c(N)nc(Cl)nc32)[C@@H](F)[C@@H]1O)C(=O)OC1CCCCC1.CCN(CC)CC (stereo partly drawn) [Example 12, 2-Chloro-9-(2′-Deoxy-2′-fluoro-β-D-arabinofuranosyl)adenine-5′-O-[phenyl(cyclohexoxy-L-valinyl)] Diphosphate Triethylammonium Salt] | – | – | – | – | – | – | – | – | – | – | – | – | – | – | – | – | – | – | – | – | EC50 (HT29; absolute EC50, numeric values): 370 nM; Top Inhibit (HT29; [5]): 71%; EC50 (HepG2; absolute EC50, numeric values): 290 nM; Top Inhibit (HepG2; [5]): 54%; EC50 (OVCAR 3; OVCAR 3, 72 h, absolute EC50, numeric values): > 198000 nM; Top Inhibit (OVCAR 3; OVCAR 3, 72 h, percentage inhibition at the highest concentration tested): 41%; Top Inhibit (MCF-7; [5]): 44%; EC50 (CCRF-CEM; absolute EC50, numeric values): < 20 nM; Top Inh (CCRF-CEM; [5]): 99%; EC50 (MOLT-4; absolute EC50, numeric values): 40 nM; Top Inh (MOLT-4; [5]): 91%; EC50 (K562; K562, 72 h, absolute EC50, numeric values): > 198000 nM; Top Inh (K562; K562, 72 h, percentage inhibition at the highest concentration tested): 40%; EC50 (HL-60; absolute EC50, numeric values): 70 nM; Top Inh (HL-60; [5]): 96%; Top Inh (RL; [5]): 47%; EC50 (RPMI-8226; absolute EC50, numeric values): 39600 nM; Top Inh (RPMI-8226; [5]): 79%; EC50 (KG-1; absolute EC50, numeric values): 140 nM; Top Inhibit (KG-1; [5]): 91%
5 | C[C@H](NP(=O)(Oc1cccc2ccccc12)OP(=O)(O)OC[C@H]1O[C@@H](n2cnc3c(N)nc(Cl)nc32)[C@H](F)C1O)C(=O)OCC(C)(C)C (stereo partly drawn) [Example 13, 2-Chloro-9-(2′-Deoxy-2′-fluoro-β-D-arabinofuranosyl)adenine-5′-O-[1-naphthyl(neopentoxy-L-alaninyl)] Diphosphate Triethylammonium Salt] | 200 to 1000 | 68 | – | 49 | 80 | > 10000 | 49 | < 200 | 99 | 89 | < 200 | 44 | > 10000 | < 200 | 96 | 48 | > 10000 | 88 | < 200 | 93 | –
6 | C[C@@H](NP(=O)(Oc1ccccc1)OP(=O)(O)OC[C@H]1O[C@@H](n2cnc3c(N)nc(Cl)nc32)[C@H](F)C1O)C(=O)OCC(C)(C)C (stereo partly drawn) [Example 14, 2-Chloro-9-(2′-Deoxy-2′-fluoro-β-D-arabinofuranosyl)adenine-5′-O-[phenyl(neopentoxy-D-alaninyl)] Diphosphate Triethylammonium Salt] | 200 to 1000 | 71 | 200 to 1000 | 52 | 43 | > 10000 | 48 | < 200 | 99 | 95 | < 200 | 36 | > 10000 | < 200 | 96 | 49 | > 10000 | 78 | < 200 | 93 | –

From patent US11560400B2, “Salts of diphosphate phosphoramidate of nucleosides as anticancer compounds” (NuCana plc, priority 2017, dated 2023)
